# Reference: patent publication US7294618B2, “Glucopyranosyloxypyrazole derivatives and medicinal use thereof” (Kissei Pharmaceutical Co., Ltd., priority 2001, dated 2007)
# Key:
# [1] = normal mice; J. Med. Chem., Vol. 39, pp. 3920-3928 (1996); cited from earlier work
# human SGLT2 = target: T1, human SGLT2 (Homo sapiens, UniProt P31639, I433V); test: Assay for inhibitory effect on human SGLT2 activity (uptake of methyl-α-D-glucopyranoside); assay type: cell-based; settings: for IC50: COS-7 cells expressing transiently human SGLT2, uptake of methyl-α-D-(U-14C)glucopyranoside, 37° C., 2 hours
# T1 construct: expressed in transfected cells; host or cells: COS-7 cells (RIKEN CELL BANK RCB0539), transient, electroporation of KL29
# T1 sequence (P31639 1-672 I433V): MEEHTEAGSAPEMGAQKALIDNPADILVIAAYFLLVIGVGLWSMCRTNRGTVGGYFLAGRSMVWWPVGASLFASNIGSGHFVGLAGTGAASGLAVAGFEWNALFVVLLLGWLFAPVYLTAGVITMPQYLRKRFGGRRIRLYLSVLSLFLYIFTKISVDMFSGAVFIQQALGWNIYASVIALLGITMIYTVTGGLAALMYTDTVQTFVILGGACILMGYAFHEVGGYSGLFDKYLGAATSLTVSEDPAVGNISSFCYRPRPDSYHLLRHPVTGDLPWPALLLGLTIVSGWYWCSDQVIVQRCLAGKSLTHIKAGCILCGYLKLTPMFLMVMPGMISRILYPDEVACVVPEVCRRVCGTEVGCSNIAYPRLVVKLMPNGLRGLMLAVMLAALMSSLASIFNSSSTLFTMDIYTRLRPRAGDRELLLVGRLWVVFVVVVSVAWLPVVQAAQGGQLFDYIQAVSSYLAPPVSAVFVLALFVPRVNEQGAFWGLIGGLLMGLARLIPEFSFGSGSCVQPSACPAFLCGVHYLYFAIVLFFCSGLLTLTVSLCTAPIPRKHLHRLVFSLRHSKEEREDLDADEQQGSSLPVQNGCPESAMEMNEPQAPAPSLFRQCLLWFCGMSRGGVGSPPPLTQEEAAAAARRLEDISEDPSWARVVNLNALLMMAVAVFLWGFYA
# Experimental: • Assay for Inhibitory Effect on Human SGLT2 Activity • 1) Construction of the Plasmid Vector Expressing Human SGLT2
# Preparation of the cDNA library for PCR amplification was performed by reverse transcription of a total RNA deprived from human kidney (Ori gene) with oligo dT as the primer, using SUPERSCRIPT Preamplification System (Gibco-BRL: LIFE TECHNOLOGIES). The DNA fragment coding for human SGLT2 was amplified by the PCR reaction, in which the human kidney cDNA library described above was used as the template and the following oligo nucleotides 0702F and 0712R, presented as Sequence Numbers 1 and 2 respectively, were used as the primers. The amplified DNA fragment was ligated into pCR-Blunt (Invitrogen), a vector for cloning, according to standard method of the kit. The Escherichia coli HB101 was transformed according to usual method and then selection of the transformants was performed on the LB agar medium containing 50 μg/mL of kanamycin. After plasmid DNA was extracted and purified from the one of the transformants, amplifying of the DNA fragment coding for human SGLT2 was performed by the PCR reaction, in which the following oligo nucleotides 0714F and 0715R, presented as Sequence Numbers 3 and 4 respectively, were used as the primers. The amplified DNA fragment was digested with restriction enzymes, Xho I and Hind III, and then purified with Wizard Purification System (Promega). This purified DNA fragment was inserted at the corresponding restriction sites of pcDNA3.1 (−) Myc/His—B (Invitrogen), a vector for expressing of fusion protein. The Escherichia coli HB101 was transformed according to usual method and then selection of the transformant was performed on the LB agar medium containing 100 μg/mL of ampicillin. After plasmid DNA was extracted and purified from this transformant, the base sequence of the DNA fragment inserted at the multi-cloning sites of the vector pcDNA3. 1 (−) Myc/His—B was analyzed. […] Sequentially, a clone in which valine is substituted for isoleucine-433 was obtained. This plasmid vector expressing human SGLT2 in which the peptide presented as Sequence Number 5 is fused to the carboxyl terminal alanine residue was designated KL29.
# • 2) Preparation of the Cells Expressing Transiently Human SGLT2
# KL29, the plasmid coding human SGLT2, was transfected into COS-7 cells (RIKEN CELL BANK RCB0539) by electroporation. Electroporation was performed with EC100 Electroporater (E-C APPARATUS CORPORATION) under the condition: 400 V, 1260 μF, 3.2×10^6 cells of COS-7 cell and 20 μg of KL29 in 800 μL of OPTI-MEM I medium (Gibco-BRL: LIFE TECHNOLOGIES) in the 0.4 cm type cuvette. After the gene transfer, the cells were harvested by centrifugation and resuspended with OPTI-MEM I medium (3.2 mL/cuvette). […]
IC50 (human SGLT2),SMILES,amount of excreted glucose [1],inhibitory activity in human SGLT2 (human SGLT2; statement in words)
270 nM,"CCc1ccc(Cc2c(O[C@@H]3O[C@H](CO)[C@@H](O)[C@H](O)[C@H]3O)nn(-c3ccccc3)c2C)cc1 [Example 18, 4-[(4-Ethylphenyl)methyl]-3-(β-D-glucopyranosyloxy)-5-methyl-1-phenyl-1H-pyrazole]",,
200 nM,"Cc1c(Cc2ccc(OC(C)C)cc2)c(O[C@@H]2O[C@H](CO)[C@@H](O)[C@H](O)[C@H]2O)nn1-c1ccccc1 [Example 20, 3-(β-D-Glucopyranosyloxy)-4-[(4-isopropoxyphenyl)methyl]-5-methyl-1-phenyl-1H-pyrazole]",,

SMILES,IC50 (human SGLT2),amount of excreted glucose [1],inhibitory activity in human SGLT2 (human SGLT2; statement in words)
CSc1ccc(Cc2c(C(F)(F)F)[nH][nH]c2=O)cc1 [WAY-123783],> 100000 nM,increased,extremely weak
